These results are taken from patent US4402972A, “Cyclopropane carboxylic acid derivatives” (Roussel Uclaf, priority 1980, dated 1983).

Experiment [1] concerns Epilachna varivestris Larvae. As to the kind of experiment: Activity against Epilachna varivestris larvae, topical application. The class given is in vivo. As to conditions: for LD50: topical, second last stage larvae, 72 hours. How it is done: The test was carried out by topical application of the test compounds as in test B and the larvae of Epilachna variestris were in second last stage. The treated larvae were then placed on bean plants and the number of dead was determined after 72 hours to calculate the LD50 in ng.

Experiment [2] deals with Boophilus microplus larvae (Mexico sensitive). Briefly: Activity against Boophilus microplus larvae, Mexico sensitive strain. The class given is in vivo. How it is done: (§1) A 10% emulsifiable concentrate was prepared by dissolving the test compound of Example 6 in a mixture of dimethylformamide, emulsifiers and Arcopal and the concentrate was diluted with water to obtain solutions of 10,5 and 1 ppm of active compound. The different solutions were sprayed by a spraying tower on to larvae of tropical cattle ticks of the Boophilus microplus type (Mexico sensitive and DDT resistant strains) and the number of dead and live larvae was determined after 24 hours.

In experiment [3] the test system is Boophilus microplus larvae (DDT resistant). As to the kind of experiment: Activity against Boophilus microplus larvae, DDT resistant strain. The class given is in vivo. How it is done: as §1
Experiment [4] deals with Rhipicephalus appendiculatus. Briefly: Activity against Rhipicephalus appendiculatus ticks. The class given is in vivo. Here is the method:
as §1
(§2) The test procedure of F was repeated with the compound of Example 6 at doses of 100, 10 and 1 ppm using 10 ticks of Rhipicephalus appendiculatus or Amblyomma hebraeum per test as above.

For another experiment, the system named is Amblyomma hebraeum. Briefly: Activity against Amblyomma hebraeum ticks. The class given is in vivo. Here is the method: as §1, §2
Experiment [5] has as its system Boophilus microplus ticks (Mexico sensitive strain). Briefly: Inhibition of reproduction of Boophilus microplus ticks. The class given is in vivo. How it is done:
Female Boophilus microplus ticks of the Mexico sensitive strain ready to lay eggs were immersed for 5 minutes in solutions of 100, 50, 25, 12.50 and 6.25 ppm of the compound of Example 6 and then they were placed in a heated enclosure to lay their eggs.

Experiment [6] deals with houseflies. Briefly: Insecticidal activity on houseflies, topical application. To be noted: 1 μl acetone solution, dorsal thorax, 4 day old females, 24 hours. The class given is in vivo. How it is done:
The test was effected on 4 day old female houseflies which received a topical application of 1 μl of an acetone solution of the test compound on the dorsal thorax with an Arnold micro-manipulator. 50 insects were used for each test and the number of dead insects were determined after 24 hours to calculate the LD50 dose in nanograms (the dose killing 50% of the insects).

The test system of experiment [7] is Spodoptera littoralis larvae. Briefly: Activity against Spodoptera littoralis larvae, topical application. To be noted: dorsal thorax, fourth stage larvae, 48 hours. The class given is in vivo. Here is the method:
The test was carried out on larvae of Spodoptera littoralis by applying an acetone solution of the test compound with an Arnold micro-manipulator to the dorsal thorax of the larvae. 10 to 15 larvae were used for each tested dose and the larvae were in the fourth stage (about 10 days old at 24° C. and 65% relative humidity). The larvae were then placed in an artifical medium (Poitout medium) and the number of dead were determined after 48 hours to calculate the LD50 in ng.

The test system of experiment [8] is houseflies. Briefly: Knock-down activity on houseflies, direct spray in Kearns and March chamber. As to conditions: for KT50: 0.25 g/l solution, 2 ml, direct spray, 4 day old females. The class given is in vivo. Here is the method: 50 4 day old female houseflies per dose were directly sprayed in a Kearns and March chamber with a solution of the 0.25 g/l of the test compound in 2 ml of a mixture of 5% of acetone and Isopar L (petroleum solvent) in one second.

Another experiment deals with insects. As to the kind of experiment: Insecticidal activity (general statement). To be noted: in vivo.
The test system of experiment [9] is mixture of spores of Fusarium roseum, Penicillium roquefonti and Aspergilus niger. As to the kind of experiment: Antifungal activity, adhesive test (3% carboxymethyl starch). As to conditions: for Growth of Fungus after 48 hours / Growth of Fungus after 8 days: scale of 3 to 0, untreated control 3. The class given is cell-based. Here is the method: The antifungal activity of (1R,cis) 2,2-dimethyl-3-[Z-2-(methoxycarbonyl)-ethenyl]-cyclopropane-carboxylic acid was determined in an adhesive test using an aqueous 3% carboxymethyl starch solution. The test compound was dissolved in 1 ml of acetone and 5 ml of an innoculum consisting of a mixture of spores of Fusarium roseum, Penicillium roquefonti and Aspergilus niger were added thereto. The development of fungus after 48 hours and 8 days was compared to an untreated control on a scale of 3 to 0.

Experiment [10] deals with mixture of spores of Geotrichum, Trichosporon and Cephalosporium. As to the kind of experiment: Anti-fungal test on oils (3% synthetic fluid). To be noted: for Anti-fungal growth after 48 hours: control 49 × 10^3 Geo. + 80 × 10^3 Tri. + 11 × 10^3 Cep. The class given is cell-based. How it is done:
A solution of 3% of synthetic fluid was used to test the anti-fungal activity of (1R,cis) 2,2-dimethyl-3-[Z-2-(methoxycarbonyl)-ethenyl]-cyclopropane-carboxylic acid and contamination was effected with 5 ml of an innoculum consisting of a mixture of spores of Geotrichum, Trichosporon and Cephalosporium.

The test system of experiment [11] is mixture of spores of Aerobacter aerogenes, Pseudomonas aeruginosa, Escherichia coli, Serratia mancescens and Bacillus subtilis. Briefly: Bactericidal activity (3% carboxymethyl starch in water). The class given is cell-based. To be noted: for bacterial population after 48 hours: control 12 × 10^7; for bacterial population after 8 days: control 16 × 10^7. Here is the method:
The bactericidal activity of (1R,cis) 2,2-dimethyl-3-[Z-2-(methoxycarbonyl)-ethenyl]-cyclopropane-carboxylic acid was determined with a solution of 3% of carboxymethyl starch in water. The test compound was placed in 1 ml of water and 5 ml of an innoculum of a mixture of spores of Aerobacter aerogenes, Pseudomonas aeruginosa, Escherichia coli, Serratia mancescens and Bacillus subtilis were added thereto. The mixture was placed in an oven for 48 hours at 37° C. and then for 6 days at 20° C. The bacterial population ([…]) was determined 48 hours and 8 days by the serum dihibition method and incorporation into broth containing agar.

Experiment [12] concerns Fusarium, Penicillium, Aspergilus, Geotrichum, Trichosporon and Cephalosporium. As to the kind of experiment: Antifungal activity of the acids (general statement). The class given is cell-based.
Where [13] appears, read: Mexico sensitive and DDT resistant strains together.
The mark [14] stands for this setting: Rhipicephalus microplus, in Bos taurus, 1 ppm, 24 hours.
Where [15] appears, read: Rhipicephalus microplus, in Bos taurus, 5 ppm, 24 hours.
[16] abbreviates: Rhipicephalus microplus, in Bos taurus, 10 ppm, 24 hours.

In general, mortality refers to the share of the test organisms that died. Low readings indicate more survivors, high ones fewer survivors. Usually inhibition stands for how much of the control response was suppressed. Low readings indicate a response near the control, high ones a response far below the control. As for `CC(C)(C)OC(=O)/C=C\[C@H]1[C@@H](C(=O)O[C@H](C#N)c2cccc(Oc3ccccc3)c2)C1(C)C` [Example 6, (S)α-cyano-3-phenoxy-benzyl (1R,cis) 2,2-dimethyl-3-[Z-2-(tert.-butoxycarbonyl)-ethenyl]-cyclopropane-carboxylate], the “insecticidal activity against Epilachna larvae (in words)” value in experiment [1] (in vivo) is given as “good insecticidal activity”. The same compound returned an LD50 in experiment [1] of 0.446 ng. The “activity against Boophilus microplus larvae, Mexico sensitive (in words)” value in experiment [2] (setting [13]) is “remarkable activity”. Besides, the mortality at 1 ppm in experiment [2] (setting [14]) worked out at 100%; in experiment [3] (setting [14]) it was 100%; in experiment [4] (Rhipicephalus appendiculatus, 1 ppm), 100%; in the experiment with Amblyomma hebraeum (Amblyomma hebraeum, 1 ppm), 70%. The mortality at 5 ppm in experiment [2] (setting [15]) and in experiment [3] (setting [15]) was 100% in each case. Further, the mortality at 10 ppm in [2] (setting [16]) stood at 100%; in experiment [3] (setting [16]), 100%; in experiment [4] (Rhipicephalus appendiculatus, 10 ppm), 100%; in the experiment with Amblyomma hebraeum (Amblyomma hebraeum, 10 ppm), 100%. In addition, the “activity against Boophilus microplus larvae, DDT resistant (in words)” value in [3] (setting [13]) is “remarkable activity”. Also, the mortality at 100 ppm in [4] (Rhipicephalus appendiculatus, 100 ppm) came to 100%; in the experiment with Amblyomma hebraeum (Amblyomma hebraeum, 100 ppm) it was 100%. The “tickicide activity against Rhipicephalus appendiculatus (in words)” value in experiment [4] (in vivo) is given as “excellent tickicide activity”. For the same compound, the “tickicide activity against Amblyomma hebraeum (in words)” value in the experiment on Amblyomma hebraeum (in vivo) is recorded as “excellent tickicide activity”. The same compound gave an inhibition at 6.25 ppm in experiment [5] (Rhipicephalus microplus, 5 min, 6.25 ppm, 5 minutes immersion) of 100%. Besides, at 12.5 ppm the inhibition in [5] (Rhipicephalus microplus, 5 min, 12.50 ppm, 5 minutes immersion) was 100%. The compound also had an inhibition at 25 ppm in experiment [5] (Rhipicephalus microplus, 5 min, 25 ppm, 5 minutes immersion) of 100%. This compound yielded an inhibition at 50 ppm in [5] (Rhipicephalus microplus, 5 min, 50 ppm, 5 minutes immersion) of 100%. In experiment [5] (Rhipicephalus microplus, 5 min, 100 ppm, 5 minutes immersion), this compound returned an inhibition at 100 ppm of 100%. In experiment [5] (in vivo), the “tickicide activity, reproduction test (in words)” value is reported as “remarkable tickicide activity”.
With `CC(C)OC(=O)/C=C\[C@H]1[C@@H](C(=O)O[C@H](C#N)c2cccc(Oc3ccccc3)c2)C1(C)C` [Example 5, (S)α-cyano-3-phenoxy-benzyl (1R,cis) 2,2-dimethyl-3-[Z-2-(isopropoxycarbonyl)-ethenyl]-cyclopropane-carboxylate], the results for the LD50 (in the experiment on houseflies [6]; in [7]; in experiment [1]) were 2.781 ng, 7.920 ng and 3.705 ng, respectively. For the same compound, in the experiment with houseflies [8], the KT50 was 4.390 min.
Taken in the same sequence, the figures for `CCOC(=O)/C=C\[C@H]1[C@@H](C(=O)O[C@H](C#N)c2cccc(Oc3ccccc3)c2)C1(C)C` [Example 3, (S)α-cyano-3-phenoxy-benzyl (1R,cis) 2,2-dimethyl-3-[Z-2-(ethoxycarbonyl)-ethenyl]-cyclopropane-carboxylate] were 3.494 ng, 3.260 ng, 8.850 ng and 3.340 min.
As to `COC(=O)/C=C\[C@H]1[C@@H](C(=O)O[C@H](C#N)c2cccc(Oc3ccccc3)c2)C1(C)C` [Example 1, (S)α-cyano-3-phenoxy-benzyl (1R,cis) 2,2-dimethyl-3-[Z-2-methoxycarbonyl-ethenyl]-cyclopropane-carboxylate], the LD50 worked out at 7.128 ng in the experiment on houseflies [6], 3.602 ng in [7] and 8.290 ng in experiment [1]. For the same compound, the KT50 in the experiment with houseflies [8] was 1.226 min. The “knock-down activity (in words)” value with houseflies [8] (in vivo) was “remarkable knock-down activity”. Further, the “insecticidal activity (in words)” value in the experiment on insects is recorded as “particularly remarkable insecticidal activity”.
Turning to `COC(=O)/C=C\[C@H]1[C@@H](C(=O)O)C1(C)C` (relative stereo) [(1R,cis) 2,2-dimethyl-3-[(Z)-2-(methoxycarbonyl)-ethenyl]-cyclopropane-carboxylic acid], the “anti-fungal activity (in words)” value in experiment [9] was “good anti-fungal activity”. Further, the “Growth of Fungus after 48 hours” value in experiment [9] (0.01 % concentration) is 3; in experiment [9] (0.05 % concentration), 0. Moreover, the “Growth of Fungus after 8 days” value in experiment [9] (0.01 % concentration) came out at 3; in experiment [9] (0.05 % concentration), 0. Besides, the “antifungal activity on oils (in words)” value in experiment [10] is listed as “good antifungal activity”. Besides, the “Anti-fungal growth after 48 hours” value in experiment [10] (0.5 % concentration) and in experiment [10] (1 % concentration) was 0 throughout. In addition, the “bactericidal activity (in words)” value in experiment [11] is given as “good bactericidal activity”. The “bacterial population after 48 hours” value is given as 10 × 10^4 colorless ml in experiment [11] (0.025%) and 52 × 10^2 colorless ml in experiment [11] (0.05%). Also, the “bacterial population after 8 days” value was 16 × 10^6 colorless ml in experiment [11] (0.025%) and 68 × 10^4 colorless ml in experiment [11] (0.05%). In [12], the “fungicidal properties / antifungal activity (in words)” value was “interesting fungicidal properties”.
